Experimental data reported in patent publication US5100892A, “Dihydropyridine vasodilator agents” (Glaxo Inc., priority 1990, dated 1992).

System: Spontaneously Hypertensive Rats
Test: Spontaneously Hypertensive Rat (SHR) Test, hemodynamics in anesthetized rats
Assay type: in vivo, Spontaneously Hypertensive Rat (Sprague Dawley)
Conditions: for HR (Heart Rate: change from basal) / LVPT (time for Left Ventricular Pressure to decay from peak to 50%, % of basal) / MBP (Mean Blood Pressure: change from basal) / RT64 (change in time from maximal relaxation, % of basal) / dP/dT40 (change in rate of systolic pressure increase of left ventricle measured at 40 mm Hg from basal): anesthetized SHR
Procedure: Male Retired Breeder Spontaneously Hypertensive Rats (SHR) (Sprague Dawley, 250-350 g) are anesthetized by i.p. injection of Sodium Thiopental 50 mg/kg. A catheter is inserted into the duodenum for maintenance of anesthesia throughout the experiment. A tube is inserted through a lateral incision in the trachea. The left carotid artery is exposed and a Millar SPR-249 (2-F) pressure probe is inserted and passed into the left ventricle of the heart. Left ventricular pressure (LVP), the first differential of the LVP (+dP/dT,-dP/dT), the left ventricular end diastolic pressure (LVEDP) and the differential of the increase in LVP measured at a constant pressure of 40 mm Hg (dP/dT40) are measured via this probe. In addition to these parameters, two indices of myocardial diastolic relaxation are measured namely the RT64 (time in msec from the peak derivative of maximal relaxation to 64% of that value) and the Left Ventricular Pressure Time Constant (LVPT), the half-time for decay of the LVP from peak pressure to 50% of that pressure. […] Results also are shown graphically on a Gould RS3800 Recorder. A saline filled cannula is passed into the femoral vein for infusion of drugs and one is placed into the femoral artery for measurement and recording or arterial blood pressure (Statham P23Db pressure transducer). From this signal the diastolic, systolic and mean blood pressure are derived as well as the heart rate. After surgery, the preparation is left to stabilize for 45 minutes after which compounds, dissolved in polyethylene glycol, are slowly infused with a Sage Instruments Infusion pump into the femoral vein. […] After completion of the last infusion, hemodynamic parameters are observed over 30 min and then a standard dose of 3.0 mg/kg milrinone is infused (over 5 min) to test preparation responsiveness. In the SHR, the following results were obtained for several known cardiovascular agents and for the compound of Examples 10,11,15 and 16.

SMILES	HR (Heart Rate: change from basal) (0.3 mg/kg i.v.) [%]	LVPT (time for Left Ventricular Pressure to decay from peak to 50%, % of basal) (0.3 mg/kg i.v.) [%]	MBP (Mean Blood Pressure: change from basal) (0.3 mg/kg i.v.) [%]	RT64 (change in time from maximal relaxation, % of basal) (0.3 mg/kg i.v.) [%]	dP/dT40 (change in rate of systolic pressure increase of left ventricle measured at 40 mm Hg from basal) (0.3 mg/kg i.v.) [%]	HR (Heart Rate: change from basal) (1.0 mg/kg i.v.) [%]	LVPT (time for Left Ventricular Pressure to decay from peak to 50%, % of basal) (1.0 mg/kg i.v.) [%]	MBP (Mean Blood Pressure: change from basal) (1.0 mg/kg i.v.) [%]	RT64 (change in time from maximal relaxation, % of basal) (1.0 mg/kg i.v.) [%]	dP/dT40 (change in rate of systolic pressure increase of left ventricle measured at 40 mm Hg from basal) (1.0 mg/kg i.v.) [%]	HR (Heart Rate: change from basal) (3.0 mg/kg i.v.) [%]	LVPT (time for Left Ventricular Pressure to decay from peak to 50%, % of basal) (3.0 mg/kg i.v.) [%]	MBP (Mean Blood Pressure: change from basal) (3.0 mg/kg i.v.) [%]	RT64 (change in time from maximal relaxation, % of basal) (3.0 mg/kg i.v.) [%]	dP/dT40 (change in rate of systolic pressure increase of left ventricle measured at 40 mm Hg from basal) (3.0 mg/kg i.v.) [%]	HR (Heart Rate: change from basal) (10 mg/kg i.v.) [%]	LVPT (time for Left Ventricular Pressure to decay from peak to 50%, % of basal) (10 mg/kg i.v.) [%]	MBP (Mean Blood Pressure: change from basal) (10 mg/kg i.v.) [%]	RT64 (change in time from maximal relaxation, % of basal) (10 mg/kg i.v.) [%]	dP/dT40 (change in rate of systolic pressure increase of left ventricle measured at 40 mm Hg from basal) (10 mg/kg i.v.) [%]	other results
COC(=O)C1=C(C)NC(C)=C(C(=O)OCCNC(=O)COc2ccc(-c3cc(C#N)c(=O)[nH]c3C)cc2)C1c1cccc(Cl)c1Cl (racemic) [Example 11, (±)-2,6-dimethyl-3-carbomethoxy-4-(2,3-dichlorophenvl)-5-{4-[1,2-dihydro-2-oxo-3-cyano-6-methyl-5(1H)-pyridyl]phenoxymethylenecarboxamindoethyloxycarbonyl}-1,4-dihydropyridine]	2.8	-14.4	-12.5	-15.7	4.5	1.7	-22.4	-16.3	-22.8	6.9	-0.5	-34	-36.7	-26	3.5	0	-31	-45.8	-34.5	-9	hemodynamic profile compared with Example 10 (in words) (i.v., SHR, compared with Example 10): A similar profile was observed
COC(=O)C1=C(C)NC(C)=C(C(=O)OCCNC(=O)COc2ccc(-c3cc(C#N)c(=O)[nH]c3C)cc2)C1c1cccc([N+](=O)[O-])c1 (single isomer, unassigned; (+)) [Example 15, (+)-2,6-dimethyl-3-carbomethoxy-4-(3-nitrophenyl)-5-{4-[1,2-dihydro-2-oxo-3-cyano-b 6-methyl-5(1H)-pyridyl]phenoxymethylenecarboxamidoethyloxycarbonyl}-1,4-dihydropyridine]	–	–	–	–	–	–	–	–	–	–	–	–	–	–	–	-1.9	-4.2	-39.8	1.6	11.9	effect on blood pressure (in words) (10 mg/kg i.v., SHR): hypotension; effect on dP/dT40 (in words) (10 mg/kg i.v., SHR): slight increase in dP/dT40; effect on heart rate (in words) (10 mg/kg i.v., SHR): no change in heart rate; effect on myocardial relaxation time constants (in words) (10 mg/kg i.v., SHR): little effect
COC(=O)C1=C(C)NC(C)=C(C(=O)OCCNC(=O)COc2ccc(-c3cc(C#N)c(=O)[nH]c3C)cc2)C1c1cccc([N+](=O)[O-])c1 (single isomer, unassigned; (-)) [Example 16, (-)-2,6-dimethyl-3-carbomethoxy-4-(3-nitrophenyl)-5-{4-[1,2-dihydro-2-oxo-3-cyano-6-methyl-5(1H)-pyridyl]phenoxymethylenecarboxamidoethyloxycarbonyl}-1,4-dihydropyridine]	–	–	–	–	–	–	–	–	–	–	–	–	–	–	–	-1.5	-18	-34.9	-17.6	5	effect on blood pressure (in words) (10 mg/kg i.v., SHR): hypotension; effect on dP/dT40 (in words) (10 mg/kg i.v., SHR): slight increase in dP/dT40; effect on heart rate (in words) (10 mg/kg i.v., SHR): no change in heart rate; effect on myocardial relaxation time constants (in words) (10 mg/kg i.v., SHR): marked reduction in myocardial relaxation time constants
NNc1nncc2ccccc12 [Hydralazine]	0	4.1	-1.2	2	0	8	2.3	-17.8	0	3.4	8.8	-7.8	-37.5	-12.5	0	17	-21.9	-48	-22.6	6.9	effect on blood pressure (in words) (0.3 to 10 mg/kg i.v., SHR): hypotension; effect on dP/dT40 (in words) (0.3 to 10 mg/kg i.v., SHR): little change in dP/dT40; effect on heart rate (in words) (0.3 to 10 mg/kg i.v., SHR): reflex tachycardia; effect on myocardial relaxation time constants (in words) (0.3 to 10 mg/kg i.v., SHR): reduction in myocardial relaxation time constants only at 3 and 10 mg/kg
Cc1[nH]c(=O)c(C#N)cc1-c1ccncc1 [Milrinone]	10	-15.5	-10	-13.7	27	12.4	-22	-29	-20.5	28.3	16.2	-30	-29	-36	34	–	–	–	–	–	effect on blood pressure (in words) (0.3 to 3 mg/kg i.v., SHR): hypotension; effect on dP/dT40 (in words) (0.3 to 3 mg/kg i.v., SHR): an increase in dP/dT40; effect on heart rate (in words) (0.3 to 3 mg/kg i.v., SHR): tachycardia; effect on myocardial relaxation time constants (in words) (0.3 to 3 mg/kg i.v., SHR): a decrease in myocardial relaxation time constants (increased rate of relaxation)
COC(=O)C1=C(C)NC(C)=C(C(=O)OC)C1c1ccccc1[N+](=O)[O-] [Nifedipine]	1	3	-30	-7	2	-5	-7	-47.5	-21	-15.5	-7.5	-18.5	-47.5	-25	-28.8	–	–	–	–	–	HR (Heart Rate: change from basal) (0.1 mg/kg i.v.): 3%; LVPT (time for Left Ventricular Pressure to decay from peak to 50%, % of basal) (0.1 mg/kg i.v.): -8%; MBP (Mean Blood Pressure: change from basal) (0.1 mg/kg i.v.): -12%; RT64 (change in time from maximal relaxation, % of basal) (0.1 mg/kg i.v.): -7%; dP/dT40 (change in rate of systolic pressure increase of left ventricle measured at 40 mm Hg from basal) (0.1 mg/kg i.v.): 7.5%; effect on blood pressure (in words) (0.1 to 3 mg/kg i.v., SHR): hypotension; effect on dP/dT40 (in words) (0.1 to 3 mg/kg i.v., SHR): a depression of dP/dT40; effect on heart rate (in words) (0.1 to 3 mg/kg i.v., SHR): little change in heart rate; effect on myocardial relaxation time constants (in words) (0.1 to 3 mg/kg i.v., SHR): significant reduction of myocardial relaxation time constants only at the highest dose tested (3 mg/kg)
